Among the data in patent US12612410B2 (CHILDREN'S HOSPITAL MEDICAL CENTER, priority 2020, dated 2026) are Kd values, retold here.

For assay [1], the target named is T1, FLT3 N841I (Homo sapiens, UniProt P36888, N841I).
T1 construct: host or cells: E. coli BL21-derived host (T7 phage) or HEK-293
T1 sequence (P36888 27-993 N841I): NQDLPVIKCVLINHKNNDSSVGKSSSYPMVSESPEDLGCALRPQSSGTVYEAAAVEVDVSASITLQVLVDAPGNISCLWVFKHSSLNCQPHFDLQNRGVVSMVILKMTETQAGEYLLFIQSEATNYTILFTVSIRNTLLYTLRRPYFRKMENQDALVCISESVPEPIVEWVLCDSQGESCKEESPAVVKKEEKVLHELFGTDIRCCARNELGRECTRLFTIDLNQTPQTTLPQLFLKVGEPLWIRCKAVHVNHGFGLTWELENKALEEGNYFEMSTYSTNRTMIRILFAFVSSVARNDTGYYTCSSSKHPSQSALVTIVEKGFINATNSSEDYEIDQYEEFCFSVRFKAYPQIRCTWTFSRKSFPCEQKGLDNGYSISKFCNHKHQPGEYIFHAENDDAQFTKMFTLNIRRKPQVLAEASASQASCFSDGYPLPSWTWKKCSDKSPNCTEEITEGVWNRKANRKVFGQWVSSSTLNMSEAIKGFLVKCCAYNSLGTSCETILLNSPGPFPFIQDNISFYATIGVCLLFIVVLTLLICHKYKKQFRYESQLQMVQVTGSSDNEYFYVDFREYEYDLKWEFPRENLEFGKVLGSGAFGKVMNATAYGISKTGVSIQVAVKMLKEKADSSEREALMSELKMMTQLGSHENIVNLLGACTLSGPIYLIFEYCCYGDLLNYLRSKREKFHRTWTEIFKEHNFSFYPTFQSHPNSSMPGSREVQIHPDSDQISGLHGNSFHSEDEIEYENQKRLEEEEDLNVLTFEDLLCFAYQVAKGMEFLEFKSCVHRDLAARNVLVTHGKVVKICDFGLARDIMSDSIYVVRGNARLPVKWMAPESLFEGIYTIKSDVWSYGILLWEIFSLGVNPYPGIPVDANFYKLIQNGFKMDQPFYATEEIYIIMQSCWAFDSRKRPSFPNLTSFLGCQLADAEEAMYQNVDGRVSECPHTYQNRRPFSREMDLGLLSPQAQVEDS
The assay is described as follows: DiscoverX KINOMEscan competition binding, FLT3 N841I. The source says: (§1) Kinase binding data were obtained for various exemplary compounds prepared according to Examples 1-24 using the DiscoverX KINOMVIEscan® active site-directed competition binding site-directed assay protocol described below. […] As a result, the data report thermodynamic interaction affinities (Kd values), rather than IC50 values that are dependent on ATP concentrations. The assay uses a DNA-tagged version of the protein kinase, and an immobilized ligand bound to a solid support. Compounds that directly or indirectly prevent kinase binding to the immobilized ligand reduce the amount of kinase captured on the solid support, which is detected using an ultra-sensitive qPCR method. Affinity constants reported from the assay have been reported to be independent of the immobilized ligand used that is coupled to the solid support (See supplemental information in Fabian, M. A. et. al., (2005) Nat. Biotechnol. 23, 329-336; Wodicka, L. M. et. al., (2010) Chem. Biol. 17, 1241-1249.)
(§2) Kinase-tagged T7 phage strains were prepared in an E. coli host derived from the BL21 strain. E. coli were grown to log-phase and infected with T7 phage and incubated with shaking at 32° C. until lysis. The lysates were centrifuged and filtered to remove cell debris. The remaining kinases were produced in HEK-293 cells and subsequently tagged with DNA for qPCR detection. Streptavidin-coated magnetic beads were treated with biotinylated small molecule ligands for 30 minutes at room temperature to generate affinity resins for kinase assays. The liganded beads were blocked with excess biotin and washed with blocking buffer (SeaBlock (Pierce), 1% BSA, 0.05% Tween 20, 1 mM DTT) to remove unbound ligand and to reduce non-specific binding. Binding reactions were assembled by combining kinases, liganded affinity beads, and test compounds in 1× binding buffer (20% SeaBlock, 0.17×PBS, 0.05% Tween 20, 6 mM DTT). Test compounds were prepared as 111× stocks in 100% DMSO. Kds were determined using an 11-point 3-fold compound dilution series with three DMSO control points. All compounds for Kd measurements are distributed by acoustic transfer (non-contact dispensing) in 100% DMSO. The compounds were then diluted directly into the assays such that the final concentration of DMSO was 0.9%. All reactions were performed in polypropylene 384-well plates. Each was a final volume of 0.02 mL. The assay plates were incubated at room temperature with shaking for 1 hour and the affinity beads were washed with wash buffer (1×PBS, 0.05% Tween 20). The beads were then re-suspended in elution buffer (1×PBS, 0.05% Tween 20, 0.5 μM nonbiotinylated affinity ligand) and incubated at room temperature with shaking for 30 minutes. The kinase concentration in the eluates was measured by qPCR.
(§3) Binding constants (Kds) were calculated with a standard dose-response curve using the Hill equation. The Hill Slope was set to −1. Curves were fitted using a non-linear least square fit with the Levenberg-Marquardt algorithm.

The target in assay [2] is T2, FLT3 R834Q (Homo sapiens, UniProt P36888, R834Q).
T2 construct: host or cells: E. coli BL21-derived host (T7 phage) or HEK-293
T2 sequence (P36888 27-993 R834Q): T1 sequence (P36888 27-993 N841I) with R808Q, I815N
The assay is described as follows: DiscoverX KINOMEscan competition binding, FLT3 R834Q.
Source text: as §1, §2, §3

The Kd is the constant that tells how readily two partners part at equilibrium. Higher therefore signals a looser complex.

Numbering of substitutions follows the chain as printed.

As to `CC1(c2cn3c(-c4cccc(N[C@H]5CNC[C@@H]5F)n4)cnc3cn2)CC1` [Compound 1, N-((3S,4S)-4-fluoropyrrolidin-3-yl)-6-(6-(1-methylcyclopropyl)imidazo[1,2-a]pyrazin-3-yl)pyridin-2-amine], the Kd in assay [1] worked out at 0.12 nM; in assay [2], 0.17 nM.

Turning to `CC1(c2cn3c(-c4cccc(N[C@@H]5CCNC5)n4)cnc3cn2)CC1` [Compound 3, (R)-6-(6-(1-methylcyclopropyl)imidazo[1,2-a]pyrazin-3-yl)-N-(pyrrolidin-3-yl)pyridin-2-amine], the dissociation constant (Kd) was found to be 0.12 nM in assay [1] and 0.14 nM in assay [2].

Consider `CC1(c2cn3c(-c4cccc(N[C@H]5CNCC56CC6)n4)cnc3cn2)CC1` [Compound 5, (R)-N-(6-(6-(1-methylcyclopropyl)imidazo[1,2-a]pyrazin-3-yl)pyridin-2-yl)-5-azaspiro[2.4]heptan-7-amine], for which the Kd in assay [1] was determined as 0.091 nM; in assay [2], 0.13 nM.

For `FC(F)(F)C1(c2cn3c(-c4cccc(N[C@@H]5CCNC5)n4)cnc3cn2)CC1` [Compound 10, (R)-N-(pyrrolidin-3-yl)-6-(6-(1-(trifluoromethyl)cyclopropyl)imidazo[1,2-a]pyrazin-3-yl)pyridin-2-amine], the results for the Kd in assay [1] and in assay [2] were 0.29 nM and 0.81 nM, respectively.

For `FC(F)c1cn2c(-c3cccc(N[C@H]4CNC[C@@H]4F)n3)cnc2cn1` [Compound 16, 6-(6-(difluoromethyl)imidazo[1,2-a]pyrazin-3-yl)-N-((3S,4S)-4-fluoropyrrolidin-3-yl)pyridin-2-amine], the values for the Kd in assay [1] and in assay [2] were 0.65 nM and 1.3 nM, respectively.

Consider `FC(F)c1cn2c(-c3cccc(N[C@H]4CNCC[C@@H]4F)n3)cnc2cn1` [Compound 25, 6-(6-(difluoromethyl)imidazo[1,2-a]pyrazin-3-yl)-N-((3S,4S)-4-fluoropiperidin-3-yl)pyridin-2-amine], for which the Kd turned out to be 0.27 nM in assay [1] and 0.47 nM in assay [2].

As to `CC(C)(O)c1cn2c(-c3cccc(N[C@@H]4CCCNC4)n3)cnc2cn1` [Compound 30, (R)-2-(3-(6-(piperidin-3-ylamino)pyridin-2-yl)imidazo[1,2-a]pyrazin-6-yl)propan-2-ol], the Kd worked out at 3.5 nM in assay [1] and 4.3 nM in assay [2].

Consider `CC(C)(O)c1cn2c(-c3cccc(N[C@H]4CNCC[C@@H]4F)n3)cnc2cn1` [Compound 31, 2-(3-(6-(((3S,4S)-4-fluoropiperidin-3-yl)amino)pyridin-2-yl)imidazo[1,2-a]pyrazin-6-yl)propan-2-ol], for which the Kd in assay [1] came to 2.1 nM; in assay [2] it was 2.2 nM.

Take `FC(F)(F)COc1cn2c(-c3cccc(N[C@@H]4CCNC4)n3)cnc2cn1` [Compound 38, (R)-N-(pyrrolidin-3-yl)-6-(6-(2,2,2-trifluoroethoxy)imidazo[1,2-a]pyrazin-3-yl)pyridin-2-amine]: the Kd was 0.52 nM in assay [1] and 1.2 nM in assay [2].

As for `F[C@H]1CNC[C@@H]1Nc1cccc(-c2cnc3cnc(C4CC4)cn23)n1` [Compound 50, 6-(6-cyclopropylimidazo[1,2-a]pyrazin-3-yl)-N-((3S,4S)-4-fluoropyrrolidin-3-yl)pyridin-2-amine], the Kd in assay [1] was found to be 0.25 nM; in assay [2], 0.2 nM.

For `Cn1cc(-c2cn3c(-c4cccc(N[C@H]5CNC[C@@H]5F)n4)cnc3cn2)cn1` [Compound 52, N-((3S,4S)-4-fluoropyrrolidin-3-yl)-6-(6-(1-methyl-1H-pyrazol-4-yl)imidazo[1,2-a]pyrazin-3-yl)pyridin-2-amine], the results for the equilibrium dissociation constant (Kd) in assay [1] and in assay [2] were 0.24 nM and 0.19 nM, respectively.
